In publication PMC13600255 (Journal of the American Chemical Society, 2025):
“And” between values parts separate entries of the source, which are not always exact repeats. Equal entries are not always repeated. “Also recorded” adds a separate entry of the source. Where two headings read alike, the source gives them in different places.

Legend:
hVMAT2 [1] = molecular target: T1, hVMAT2 (Homo sapiens, UniProt Q05940); experiment: FFN206 fluorescent substrate uptake inhibition in hVMAT2-HEK cells; assay type: cell-based
rat VMAT2 (rVMAT2) = rat VMAT2 (rVMAT2) (Rattus norvegicus, UniProt Q01827); experiment: [3H]5-HT uptake inhibition in rat brain synaptic vesicular fraction; assay type: biochemical; settings: read-out: Uptake Inhibition at VMAT2 IC50, [3H]5-HT (rVMAT2); rat brain synaptic vesicles
rVMAT2 = rVMAT2 (Rattus norvegicus, UniProt Q01827); experiment: [3H]DTBZ binding competition in rat brain synaptic vesicles
mouse VMAT2 (mVMAT2) = mouse VMAT2 (mVMAT2) (Mus musculus, UniProt Q8BRU6); experiment: FFN200 two-photon imaging of VMAT2 function in acute mouse brain slices; assay type: cell-based; settings: for Effect on FFN200 uptake / punctate labeling: 2 μM for 30 minutes, FFN200 10 μM, dorsal striatum
[2] = tested on: other uptake 2 transporters (OCT1, OCT3, PMAT); experiment: Fluorescent substrate uptake inhibition at the other uptake 2 transporters; assay type: cell-based
VMAT2 = VMAT2 (Rattus norvegicus, UniProt Q01827); experiment: [3H]5-HT release from rat brain synaptic vesicles via VMAT2; assay type: biochemical; settings: for [3H]5-HT Release % Emax via VMAT2: rat brain vesicular fraction, 5-HT control set as Emax = 100%
hVMAT2 [3] = molecular target: T1, hVMAT2; settings: read-out: IC50, VMAT2 binding, cortex; human brain cortex; cited from earlier work
[4] = Pharmacokinetics in mice, estimated free drug concentration in brain; assay type: in vivo, mouse
SERT [5] = molecular target: SERT (Rattus norvegicus, UniProt P31652); experiment: [3H]5-HT release from rat brain synaptosomes via SERT; assay type: biochemical; settings: rat brain synaptosomes; for [3H]5-HT Release % Emax via SERT / [3H]5-HT Release EC50 ± SD via SERT: n = 3; for [3H]5-HT Release EC50 ± SD via SERT: active releaser: EC50 < 10 μM and Emax > 30%
mice [6] = experiment: Catalepsy bar test in mice; assay type: in vivo, mouse; settings: mice, s.c.
hDAT = hDAT (Homo sapiens, UniProt Q01959); experiment: APP+ fluorescent substrate uptake inhibition in hDAT-HEK cells; assay type: cell-based; settings: read-out: IC50, hDAT
rat SERT (rSERT) [7] = molecular target: T2, rat SERT (rSERT) (Rattus norvegicus, UniProt P31652); settings: cited from earlier work
rat SERT (rSERT) [8] = molecular target: T2, rat SERT (rSERT); experiment: [3H]5-HT uptake inhibition in rat brain synaptosomes; assay type: biochemical; settings: rat brain synaptosomes
hOCT2 = molecular target: T3, hOCT2 (Homo sapiens, UniProt O15244); experiment: ASP+ fluorescent substrate uptake inhibition at OCT2; assay type: cell-based; settings: read-out: IC50, hOCT2; ASP+ fluorescent substrate
T3 sequence (O15244 1-555): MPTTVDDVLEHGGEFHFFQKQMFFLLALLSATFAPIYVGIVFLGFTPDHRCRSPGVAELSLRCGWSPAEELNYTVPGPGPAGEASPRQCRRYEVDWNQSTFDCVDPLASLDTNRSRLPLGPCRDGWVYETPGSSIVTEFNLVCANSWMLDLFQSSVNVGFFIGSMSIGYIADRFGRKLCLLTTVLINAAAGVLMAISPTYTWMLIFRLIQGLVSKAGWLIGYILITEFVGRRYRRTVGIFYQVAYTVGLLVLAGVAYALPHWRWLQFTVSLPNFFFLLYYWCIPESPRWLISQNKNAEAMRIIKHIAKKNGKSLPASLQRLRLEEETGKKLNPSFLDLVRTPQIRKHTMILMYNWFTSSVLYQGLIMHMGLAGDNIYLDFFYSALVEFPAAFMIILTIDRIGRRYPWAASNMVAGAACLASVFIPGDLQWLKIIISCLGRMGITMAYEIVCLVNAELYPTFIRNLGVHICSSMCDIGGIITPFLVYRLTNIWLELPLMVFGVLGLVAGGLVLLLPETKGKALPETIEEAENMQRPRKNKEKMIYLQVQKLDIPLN

humans [9] = settings: top dose of 180 mg, p.o.; cited from earlier work
Lipophilicity = assay type: physicochemical; settings: noribogaine versus ibogamine
SERT [10] = molecular target: SERT (Mus musculus, UniProt Q60857); experiment: SERTlight two-photon imaging of SERT function in acute mouse brain slices; assay type: cell-based; settings: for Effect on SERTlight labeling of 5-HT axons: 2 μM for 30 minutes, SERTlight 10 μM, SNpr, DS, SSp2/3
mice [11] = experiment: Open field locomotor activity test in mice; assay type: in vivo, mouse; settings: s.c.
SERT [12] = settings: SERT-transfected cells; cited from earlier work
mice [13] = experiment: Loss of righting reflex; assay type: in vivo, mouse; settings: high doses
MAO A = molecular target: T4, MAO A (Homo sapiens, UniProt P21397); experiment: MAO A activity; assay type: biochemical; settings: Figure S16
T4 sequence (P21397 1-527): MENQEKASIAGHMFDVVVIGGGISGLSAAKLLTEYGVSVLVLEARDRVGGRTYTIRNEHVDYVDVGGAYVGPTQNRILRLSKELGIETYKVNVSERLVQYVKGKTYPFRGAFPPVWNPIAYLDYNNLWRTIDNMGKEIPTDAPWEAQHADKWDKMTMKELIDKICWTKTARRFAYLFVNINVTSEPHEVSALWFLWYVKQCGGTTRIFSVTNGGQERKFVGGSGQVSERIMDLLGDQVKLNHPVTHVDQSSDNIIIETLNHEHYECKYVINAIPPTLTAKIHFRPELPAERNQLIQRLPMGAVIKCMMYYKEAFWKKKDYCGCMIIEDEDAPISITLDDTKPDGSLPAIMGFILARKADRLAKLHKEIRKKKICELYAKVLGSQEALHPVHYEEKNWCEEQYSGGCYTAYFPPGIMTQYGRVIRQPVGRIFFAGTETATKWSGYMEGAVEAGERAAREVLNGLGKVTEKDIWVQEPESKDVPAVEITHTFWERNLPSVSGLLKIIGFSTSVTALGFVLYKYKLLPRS

humans [14] = settings: after a single treatment; cited from earlier work

VMAT2, sequence (Q01827 whole entry): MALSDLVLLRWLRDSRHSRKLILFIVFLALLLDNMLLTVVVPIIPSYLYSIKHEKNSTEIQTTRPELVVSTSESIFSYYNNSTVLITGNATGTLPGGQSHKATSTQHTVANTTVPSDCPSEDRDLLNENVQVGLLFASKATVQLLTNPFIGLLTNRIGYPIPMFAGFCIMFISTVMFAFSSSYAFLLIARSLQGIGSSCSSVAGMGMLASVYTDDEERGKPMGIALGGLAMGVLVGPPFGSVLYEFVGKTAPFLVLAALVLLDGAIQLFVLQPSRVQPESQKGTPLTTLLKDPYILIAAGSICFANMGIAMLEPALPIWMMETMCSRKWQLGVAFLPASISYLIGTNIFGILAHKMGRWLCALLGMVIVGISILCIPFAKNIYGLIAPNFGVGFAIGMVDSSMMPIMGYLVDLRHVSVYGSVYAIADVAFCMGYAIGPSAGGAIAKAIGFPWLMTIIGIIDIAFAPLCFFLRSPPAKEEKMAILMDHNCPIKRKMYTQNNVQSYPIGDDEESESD
SERT (Mus musculus, UniProt Q60857), sequence (Q60857 whole entry): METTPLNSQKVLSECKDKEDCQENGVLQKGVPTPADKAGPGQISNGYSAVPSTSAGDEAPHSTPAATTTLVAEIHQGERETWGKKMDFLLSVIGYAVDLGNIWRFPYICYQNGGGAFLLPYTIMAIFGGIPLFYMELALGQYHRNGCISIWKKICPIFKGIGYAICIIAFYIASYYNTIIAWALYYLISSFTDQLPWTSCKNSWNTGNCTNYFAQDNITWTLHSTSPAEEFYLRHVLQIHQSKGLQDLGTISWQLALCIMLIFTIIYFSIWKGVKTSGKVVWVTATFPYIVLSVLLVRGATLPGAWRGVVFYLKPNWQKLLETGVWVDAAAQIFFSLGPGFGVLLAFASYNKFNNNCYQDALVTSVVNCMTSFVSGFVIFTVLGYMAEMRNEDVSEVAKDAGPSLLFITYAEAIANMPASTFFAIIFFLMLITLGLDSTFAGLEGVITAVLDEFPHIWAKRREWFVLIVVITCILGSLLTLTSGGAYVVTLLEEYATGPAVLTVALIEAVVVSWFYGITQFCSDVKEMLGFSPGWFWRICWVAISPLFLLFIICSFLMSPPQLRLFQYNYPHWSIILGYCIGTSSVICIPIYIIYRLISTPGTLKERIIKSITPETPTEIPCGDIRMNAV
mouse VMAT2 (mVMAT2), sequence (Q8BRU6 whole entry): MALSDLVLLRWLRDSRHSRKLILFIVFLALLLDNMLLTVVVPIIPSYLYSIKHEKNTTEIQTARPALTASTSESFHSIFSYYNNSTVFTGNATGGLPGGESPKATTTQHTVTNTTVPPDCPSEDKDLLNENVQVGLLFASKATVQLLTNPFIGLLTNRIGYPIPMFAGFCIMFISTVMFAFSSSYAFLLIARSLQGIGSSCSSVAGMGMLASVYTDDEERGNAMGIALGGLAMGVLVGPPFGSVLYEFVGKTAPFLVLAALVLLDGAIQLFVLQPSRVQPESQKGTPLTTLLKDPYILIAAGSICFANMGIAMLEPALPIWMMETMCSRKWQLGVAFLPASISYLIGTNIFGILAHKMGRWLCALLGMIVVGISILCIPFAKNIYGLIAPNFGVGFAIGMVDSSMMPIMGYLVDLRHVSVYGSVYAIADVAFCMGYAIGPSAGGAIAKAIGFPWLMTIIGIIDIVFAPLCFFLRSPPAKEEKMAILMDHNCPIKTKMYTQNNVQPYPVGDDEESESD
T2 sequence (P31652 whole entry): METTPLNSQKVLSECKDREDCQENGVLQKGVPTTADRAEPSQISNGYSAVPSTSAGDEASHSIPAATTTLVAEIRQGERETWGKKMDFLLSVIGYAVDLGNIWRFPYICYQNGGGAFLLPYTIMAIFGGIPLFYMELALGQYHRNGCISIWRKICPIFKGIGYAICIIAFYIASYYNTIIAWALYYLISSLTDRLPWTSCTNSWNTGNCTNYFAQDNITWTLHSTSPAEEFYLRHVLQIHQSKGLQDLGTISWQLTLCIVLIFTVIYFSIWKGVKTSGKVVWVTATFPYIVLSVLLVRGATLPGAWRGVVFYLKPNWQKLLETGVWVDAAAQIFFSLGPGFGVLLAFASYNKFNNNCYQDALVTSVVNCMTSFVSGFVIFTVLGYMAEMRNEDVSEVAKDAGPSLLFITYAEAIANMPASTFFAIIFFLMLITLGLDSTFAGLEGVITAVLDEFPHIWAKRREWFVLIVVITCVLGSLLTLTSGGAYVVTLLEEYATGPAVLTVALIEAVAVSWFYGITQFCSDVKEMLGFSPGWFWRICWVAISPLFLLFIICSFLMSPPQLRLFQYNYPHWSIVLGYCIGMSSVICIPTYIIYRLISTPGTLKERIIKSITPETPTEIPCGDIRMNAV
SERT (Rattus norvegicus, UniProt P31652), sequence (P31652 whole entry): as above
T1 sequence (Q05940 whole entry): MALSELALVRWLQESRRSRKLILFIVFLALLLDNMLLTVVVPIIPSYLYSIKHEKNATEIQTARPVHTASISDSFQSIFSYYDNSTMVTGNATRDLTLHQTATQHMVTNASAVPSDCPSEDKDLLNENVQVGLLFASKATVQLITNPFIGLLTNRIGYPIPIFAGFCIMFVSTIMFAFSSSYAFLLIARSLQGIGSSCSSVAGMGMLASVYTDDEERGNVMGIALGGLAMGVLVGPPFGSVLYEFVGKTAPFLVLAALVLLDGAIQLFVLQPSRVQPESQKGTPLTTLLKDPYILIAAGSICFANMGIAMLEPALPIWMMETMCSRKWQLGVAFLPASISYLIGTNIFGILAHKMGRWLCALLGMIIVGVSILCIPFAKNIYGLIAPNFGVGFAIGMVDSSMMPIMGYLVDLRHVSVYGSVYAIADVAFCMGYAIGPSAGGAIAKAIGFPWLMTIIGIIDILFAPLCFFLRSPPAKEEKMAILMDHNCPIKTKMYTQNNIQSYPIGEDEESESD
rVMAT2, sequence (Q01827 whole entry): as the sequence (Q01827 whole entry) above
hDAT, sequence (Q01959 whole entry): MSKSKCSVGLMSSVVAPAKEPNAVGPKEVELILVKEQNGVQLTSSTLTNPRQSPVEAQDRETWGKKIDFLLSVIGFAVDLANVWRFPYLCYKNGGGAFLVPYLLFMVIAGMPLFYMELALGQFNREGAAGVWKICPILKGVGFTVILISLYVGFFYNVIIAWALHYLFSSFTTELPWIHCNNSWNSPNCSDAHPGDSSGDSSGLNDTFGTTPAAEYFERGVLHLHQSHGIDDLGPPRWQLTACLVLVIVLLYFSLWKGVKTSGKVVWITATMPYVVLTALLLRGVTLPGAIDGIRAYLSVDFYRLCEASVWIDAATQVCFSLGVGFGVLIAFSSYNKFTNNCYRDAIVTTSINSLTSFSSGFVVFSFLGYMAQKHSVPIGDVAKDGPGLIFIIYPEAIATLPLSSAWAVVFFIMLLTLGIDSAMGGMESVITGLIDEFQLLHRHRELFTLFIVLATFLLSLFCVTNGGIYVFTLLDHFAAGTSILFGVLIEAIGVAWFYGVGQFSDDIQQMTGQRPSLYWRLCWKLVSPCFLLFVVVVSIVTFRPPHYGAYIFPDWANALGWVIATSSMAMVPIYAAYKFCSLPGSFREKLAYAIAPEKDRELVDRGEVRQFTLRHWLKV
rat VMAT2 (rVMAT2), sequence (Q01827 whole entry): as the sequence (Q01827 whole entry) above

CC[C@H]1C[C@H]2C[C@H]3c4[nH]c5ccc(O)cc5c4CCN(C2)[C@@H]13 [noribogaine]
IC50 (hVMAT2 [1]; read-out: IC50, hVMAT2 (uptake inhibition, FFN206), hVMAT2-HEK cells, fluorescent substrate FFN206, n = 4): 570 nM | IC50 (rat VMAT2 (rVMAT2)): 1310 nM | [3H]DTBZ displacement (rVMAT2): < 20% | IC50 (rVMAT2; read-out: IC50, rVMAT2 ([3H]DTBZ competition)): > 10000 nM | Effect on FFN200 uptake / punctate labeling (mouse VMAT2 (mVMAT2)): strong inhibitory effects; also recorded: completely inhibited FFN200 uptake | IC50 (mouse VMAT2 (mVMAT2); read-out: IC50 FFN200 uptake in acute mouse slices, number of puncta per image, dose-response): 160 nM | Inhibition at the other uptake 2 transporters examined [2]: no inhibition below 10 μM | [3H]5-HT Release % Emax via VMAT2 (VMAT2): 50% | EC50 (VMAT2; read-out: [3H]5-HT Release EC50 ± SD via VMAT2): 6480 nM | IC50 (hVMAT2 [3]): 5000 nM | Cmax, estimated free brain concentration ([4]; mice, 10 mg/kg, s.c.): ~ 6.6 μM | Cmax, estimated free drug in the brain ([4]; mice, 50 mg/kg, s.c.): 31 µM and > 20 µM | Concentration of free drug in the brain over plasma ([4]; rodents (rats ref 11 and mice, Figure S11)): > 4 fold | [3H]5-HT release from preloaded synaptosomes (qualitative) (SERT [5]): No [^3H]5-HT release was observed | [3H]5-HT Release % Emax via SERT (SERT [5]): < 30% | [3H]5-HT Release EC50 ± SD via SERT (SERT [5]): inactive | Catalepsy in bar test (mice [6]; high doses 30, 50 and 80 mg/kg): did not induce catalepsy; also recorded: did not show any catalepsy | Catalepsy in bar test (mice [6]; dose-response): does not result in catalepsy | IC50 (hDAT): 6760 nM | IC50 (rat SERT (rSERT) [7]; read-out: IC50, rSERT reported previously in rat synaptosomes): 330 nM | IC50 (rat SERT (rSERT) [8]; read-out: Uptake Inhibition at SERT IC50, [3H]5-HT (rSERT)): 326 nM | IC50 (rat SERT (rSERT) [8]; read-out: [3H]5-HT Uptake Inhibition IC50 ± SD, SERT, n = 3): 326 ± 47.6 nM | IC50 (hOCT2): 6180 nM | Dose-limiting cardiac effect (humans [9]): cardiac QT interval prolongation | Less lipophilic than ibogamine by (Lipophilicity): 1.75 log D units | Effect on somatodendritic SERTlight labeling in dorsal raphe (SERT [10]; 2 μM): showed no effect | Effect on SERTlight labeling of 5-HT axons (SERT [10]): ablated SERTlight probe uptake; also recorded: completely blocked the SERTlight signal; also recorded: completely inhibited the axonal SERT | Effect on somatodendritic SERTlight labeling in dorsal raphe (SERT [10]; 10 μM): showed no effect | Effect on somatodendritic SERTlight labeling in dorsal raphe (SERT [10]; 30 μM): no apparent effect | Effect on somatodendritic SERTlight labeling in dorsal raphe (SERT [10]; 100 μM): clear inhibition | Inhibitory potency on SERTlight staining in dorsal raphe, dose-response (SERT [10]; 10, 30, 50, and 100 μM): weak inhibitory potency | Locomotion in open field test (mice [11]; 30 mg/kg): strongly suppressed | Locomotor activity / sedation in open field test (mice [11]; dose-response): diminished ambulatory behavior | Partial [3H]5-HT release Emax (SERT [12]): ~ 30% | Loss of righting reflex (LORR) (mice [13]): did not observe a loss of righting reflex

ibogaine
Selectivity hVMAT2 over hSERT (hVMAT2 [1]; ratio of IC50 values, cell-based fluorometry): seven-fold more potent at VMAT2 | Activity at MAO A (MAO A): no activity | Effect on FFN200 uptake / punctate labeling (mouse VMAT2 (mVMAT2)): strong inhibitory effects; also recorded: completely inhibited FFN200 uptake | Inhibition at the other uptake 2 transporters examined [2]: no inhibition below 10 μM | Concentration at which [3H]5-HT release exceeds Emax of 30% (VMAT2; rat brain synaptic vesicles): > 10 µM | [3H]5-HT Release % Emax via VMAT2 (VMAT2): < 30% | [3H]5-HT release from preloaded synaptosomes (qualitative) (SERT [5]): No [^3H]5-HT release was observed | [3H]5-HT Release % Emax via SERT (SERT [5]): < 30% | [3H]5-HT Release EC50 ± SD via SERT (SERT [5]): inactive | Ratio of binding to uptake inhibitory constants at SERT (rat SERT (rSERT) [7]): ~ 1 | Remission (humans [14]): 80% | Effect on SERTlight labeling of 5-HT axons (SERT [10]): did not alter probe uptake; also recorded: had no effect on SERTlight labeling
